Laboratory results: patent US4152425A, “Glucose containing infusion solution” (THERA Gesellschaft fur Patentverwertung mbH, priority 1976, dated 1979)
Where no end group is shown, it is not given here.

Assays:
[1] = Decomposition of the kinins within the organism; settings: in vivo
From the text: This is unexpected and surprising because the phenothiazines were known heretofore only as substances having an anti-depressive effect. This fact could cause one to conclude, however, that they could affect certain oligopeptides which influence the metabolism and would indirectly, i.e., by inhibiting the decomposition of the kinins, improve the glucose assimilation of the tissue.

[2] = tested on: spermatozoa; settings: cited from earlier work
[3] = tested on: resting forearm; assay: Resting forearm test, 10 milliliter injection into the artery of the arm; format: in vivo, human; settings: fraction of 1μ gram in 10 milliliter of 10% glucose solution injected into the artery of the arm, versus kinin-free solution
From the text: This illustrates the improved glucose absorption into the tissue of the arm and the muscular system of the hand when the solution of the present invention is employed. Since the effect of this decrease in the glucose level of the blood by the kinin admixture occurs so quickly, it may be assumed that this is caused not by an intensification of the decomposition of the glucose or the metabolism within the cell but by a more rapid penetration of the muscular cell.

Compound | decomposition of the kinins within the organism [1] | mobility of the spermatozoa [2] | glucose content in the blood flowing through the vein of the arm [3]
CN(C)CCCN1c2ccccc2Sc2ccc(Cl)cc21 [2-chloro-10-(3-dimethylamino-propyl)-phenothiazine] | inhibited significantly | – | –
RPPGFSPFR [Brady kinin, (NH2) arginine - proline - proline - glycine - phenylalanine - serine - proline - phenylalanine - arginine (COOH)] | – | further the mobility of the spermatozoa | pronounced decrease
kallidin: decapeptide kinin differing from Brady kinin only by a lysine residue at the amino end (KRPPGFSPFR; Lysyl-bradykinin; UniProt P01042 380-389, looked up) | – | further the mobility of the spermatozoa | –
